Values quoted from earlier work, collected in patent publication US7579489B2, “Processes for the preparation and purification of hydroxymethylfuraldehyde and derivatives” (Archer-Daniels-Midland Company, priority 2004, dated 2009).

conditions: water/octanol; values taken from Hansch & Leo (1979) and Leo, Hansch & Elkins (1971)

Log P	SMILES
1.83	CCCCCC(C)=O [2-Heptanone]
0.91	CCCC(C)=O [2-Pentanone]
−0.27	C1COCCO1 [Dioxane]
0.66	CCOC(C)=O [Ethyl acetate]
1.32	CC(=O)CC(C)C [Methyl isobutyl ketone]

SMILES	Log P
CCC(C)=O [2-Butanone]	0.29
CCCCOC(C)=O [Butyl acetate]	1.71
ClC(Cl)Cl [Chloroform]	2.24
NC=O [Formamide]	−1.51
